Literature values in paper PMC12846068, “Insights into Transport Function of the Murine Organic Anion-Transporting Polypeptide OATP1B2 by Comparison with Its Rat and Human Orthologues” (Toxics, 2025).

How the values were obtained:
hOATP1B1 = molecular target: T1, hOATP1B1 (Homo sapiens, UniProt Q9Y6L6); set-up: expressed in transfected cells; host or cells: HEK-293, stably transfected; conditions: read-out: Km as substrate of hOATP1B1; cited from earlier work
T1 sequence (Q9Y6L6 1-691): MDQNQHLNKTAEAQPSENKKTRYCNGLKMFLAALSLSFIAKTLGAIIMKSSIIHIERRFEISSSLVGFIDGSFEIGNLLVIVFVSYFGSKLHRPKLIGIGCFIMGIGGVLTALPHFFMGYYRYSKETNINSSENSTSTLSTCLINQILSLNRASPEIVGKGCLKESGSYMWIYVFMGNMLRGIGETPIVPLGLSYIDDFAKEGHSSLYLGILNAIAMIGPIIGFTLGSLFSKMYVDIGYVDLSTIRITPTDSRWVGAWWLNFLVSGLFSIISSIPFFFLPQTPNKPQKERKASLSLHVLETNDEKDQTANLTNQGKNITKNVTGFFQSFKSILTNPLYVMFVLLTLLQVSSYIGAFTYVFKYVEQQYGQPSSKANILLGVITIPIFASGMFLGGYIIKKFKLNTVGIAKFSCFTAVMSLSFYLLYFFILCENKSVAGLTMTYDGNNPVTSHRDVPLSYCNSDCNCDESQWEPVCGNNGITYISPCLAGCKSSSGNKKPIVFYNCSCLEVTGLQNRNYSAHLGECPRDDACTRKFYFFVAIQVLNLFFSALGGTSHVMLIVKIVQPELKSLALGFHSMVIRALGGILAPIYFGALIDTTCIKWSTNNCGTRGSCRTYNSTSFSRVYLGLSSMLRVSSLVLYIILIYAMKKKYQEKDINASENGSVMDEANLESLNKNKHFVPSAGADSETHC

rOATP1B2 = molecular target: T2, rOATP1B2 (Rattus norvegicus, UniProt Q9QZX8); set-up: method as in Ishida et al. (2018) [9]; conditions: ref Ishida et al. (2018) [9]; read-out: Km, rOATP1B2-mediated uptake; cited from earlier work
T2 construct: The full-length mOATP1B2 and rOATP1B2 consist of 689 and 678 amino acids
T2 sequence (Q9QZX8 1-687): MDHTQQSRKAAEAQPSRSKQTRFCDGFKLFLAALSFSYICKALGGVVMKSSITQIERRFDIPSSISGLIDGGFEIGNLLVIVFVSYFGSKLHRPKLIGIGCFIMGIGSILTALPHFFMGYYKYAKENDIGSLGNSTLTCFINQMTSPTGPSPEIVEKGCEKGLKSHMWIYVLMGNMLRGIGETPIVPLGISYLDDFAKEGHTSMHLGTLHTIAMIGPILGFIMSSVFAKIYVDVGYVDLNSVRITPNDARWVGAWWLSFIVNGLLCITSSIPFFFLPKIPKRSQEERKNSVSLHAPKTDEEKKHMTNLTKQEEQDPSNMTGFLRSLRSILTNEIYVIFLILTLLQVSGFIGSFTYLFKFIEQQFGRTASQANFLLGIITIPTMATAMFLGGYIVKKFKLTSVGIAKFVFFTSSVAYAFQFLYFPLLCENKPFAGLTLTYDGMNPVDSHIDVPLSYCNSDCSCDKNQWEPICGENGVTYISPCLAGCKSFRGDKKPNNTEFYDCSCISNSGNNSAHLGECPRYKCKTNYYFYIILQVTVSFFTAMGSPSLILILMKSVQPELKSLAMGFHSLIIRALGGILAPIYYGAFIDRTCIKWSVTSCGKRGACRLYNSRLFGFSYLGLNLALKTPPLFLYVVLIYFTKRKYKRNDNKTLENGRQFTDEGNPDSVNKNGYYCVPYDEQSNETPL

Compound: CC(C)c1nc(N(C)S(C)(=O)=O)nc(-c2ccc(F)cc2)c1/C=C/[C@@H](O)C[C@@H](O)CC(=O)O [Rosuvastatin, rosuvastatin]
- Km (hOATP1B1): 0.8 µM
- Km (rOATP1B2): 28.1 µM
